Structures can show the parent of a compound that is named as a salt.
Assays:
rh beta tryptase = target: T1, rh beta tryptase (Homo sapiens, UniProt Q15661); test: tryptase inhibition test (cleavage of N-p-tosyl-Gly-Pro-Lys-para-nitroaniline, p-nitroaniline measured at 405 nm); format: biochemical; details: Tris HCl buffer pH 7.4 with calcium and heparin, 37° C., substrate 0.6 mM, 5 minutes pre-incubation, 5 minutes incubation
T1 construct: purchased Promega
Description: The compounds according to the invention are characterised by their tryptase-inhibiting activity. This ability to inhibit tryptase was investigated using the test described below.
The measurement is carried out in Tris HCl buffer (100 mM), which additionally contains calcium (5 mM) and heparin ([…]), at pH 7.4. The standard used is rh beta tryptase which may be obtained commercially from Promega, for example. The substrate used is N-p-tosyl-Gly-Pro-Lys-para-nitroaniline in a concentration of 0.6 mM. The substrate is digested with tryptase to form p-nitroaniline which can be measured at 405 nm. Usually, an incubation period of 5 minutes and an incubation temperature of 37° C. are chosen. The enzyme activity used is 0.91 U/ml. The measurements are carried out in an Autoanalyser (Cobas Bio) made by Hofmann LaRoche. The potential inhibitory substances are used in concentrations of 10 μM in the screening, the inhibition of the tryptase being given in percent. The IC50 is determined at over 70% inhibition (concentration at which 50% of the enzyme activity is inhibited). After 5 minutes pre-incubation of the potential inhibitory substances, the substrate is added to start the reaction, the formation of p-nitroaniline being taken as a measurement of the enzyme activity after 5 minutes, after testing the linearity.
The data obtained after carrying out the tests described above (IC50 values) can be found in Table 2.

T1 sequence (Q15661 31-275): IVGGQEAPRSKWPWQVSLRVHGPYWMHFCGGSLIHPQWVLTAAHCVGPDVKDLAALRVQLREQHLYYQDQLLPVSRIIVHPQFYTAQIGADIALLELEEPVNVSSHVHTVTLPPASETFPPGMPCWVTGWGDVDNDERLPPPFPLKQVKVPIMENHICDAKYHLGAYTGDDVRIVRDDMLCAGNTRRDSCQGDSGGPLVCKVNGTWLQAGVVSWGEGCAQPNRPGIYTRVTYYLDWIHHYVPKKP

SMILES | IC50 (rh beta tryptase) [nM] | melting point [°C]
CCN(CC)CCN(c1ccc2c(c1)nc(CCc1ccc(C(=N)N)cc1)n2C)S(=O)(=O)c1ccc(Cl)cc1 [Example 10, N-{2-[2-(4-amidinophenyl)-ethyl]-1-methyl-benzimidazol-5-yl}-N-diethylaminoethyl-(4-chloro-benzenesulphonamide)] | 49 | 88 to 90
CCN(CC)CCN(c1ccc2c(c1)nc(CCc1ccc(C(=N)N)cc1)n2C)S(=O)(=O)c1ccc(C(=O)O)cc1 (as salt: fumarate) [Example 14, N-{2-[2-(4-amidinophenyl)-ethyl]-1-methyl-benzimidazol-5-yl}-N-diethylaminoethyl-[4-carboxy-benzenesulphonamide]-fumarate] | – | 200 to 204
